In ChEMBL document CHEMBL3232968, “Potent airway smooth muscle relaxant effect of cynatratoside B, a steroidal glycoside isolated from Cynanchum stauntonii” (J Nat Prod, 2014):

How the values were obtained:
Trachea [1] = experiment: Inhibition of carbachol-induced contraction of Sprague-Dawley rat tracheal rings after 30 mins by isometric tension technique; assay type: functional, tissue-based; settings: 0.5 h
Trachea [2] = experiment: Inhibition of acetylcholine-induced contraction of Sprague-Dawley rat tracheal rings after 30 mins by isometric tension technique; assay type: functional, tissue-based

Compound | EC50 (Trachea [1]) | inhibition (Trachea [2]) | EC50 (Trachea [2]; 0.5 h)
CC(C)NC[C@H](O)c1ccc(O)c(O)c1 [LEVISOPRENALINE] | 130 nM | – | –
C[C@@H]1O[C@@H](O[C@H]2[C@H](O[C@H]3CC[C@@]4(C)[C@@H](CC[C@]5(C)[C@@H]4CC=C4[C@@H]6CC(C)(C)CC[C@]6(C(=O)O)CC[C@]45C)[C@]3(C)CO)OC[C@H](O)[C@@H]2O)[C@H](O)[C@H](O)[C@H]1O [ALPHA-HEDERIN] | 1000 nM | – | –
CO[C@@H]1C[C@H](O[C@H]2[C@@H](O)C[C@H](O[C@@H]3[C@@H](C)O[C@@H](O[C@H]4CC[C@@]5(C)C(=CC[C@@H]6C(=O)O[C@@H]7CO[C@]8(C)OC=C(CC[C@@H]65)[C@H]78)C4)C[C@H]3OC)O[C@@H]2C)O[C@@H](C)[C@@H]1O | 480 nM | Dose-dependent effect | 850 nM
